For 25 molecules, IC50 results are on record in patent US11066414B2, “Cot modulators and methods of use thereof” (Gilead Sciences, Inc., priority 2015, dated 2021).

Human Cot, sequence (P41279 30-397): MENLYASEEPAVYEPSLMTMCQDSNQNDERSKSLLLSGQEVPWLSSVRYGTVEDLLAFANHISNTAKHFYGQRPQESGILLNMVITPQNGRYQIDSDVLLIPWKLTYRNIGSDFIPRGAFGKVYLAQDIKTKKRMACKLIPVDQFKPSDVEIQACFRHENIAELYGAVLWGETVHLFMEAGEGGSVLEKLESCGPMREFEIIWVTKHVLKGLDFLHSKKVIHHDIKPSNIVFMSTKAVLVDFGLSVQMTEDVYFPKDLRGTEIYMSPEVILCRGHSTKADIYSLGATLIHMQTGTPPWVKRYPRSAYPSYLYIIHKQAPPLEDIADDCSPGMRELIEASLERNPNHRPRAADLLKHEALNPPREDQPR

One assay addresses Human Cot (Homo sapiens (Human), UniProt P41279). As to the kind of experiment: High Throughput Cot Biochemical Assay. To be noted: IC50 HTRF, Cot HTRF (TR-FRET) biochemical assay. On the technique in general: TR-FRET usually uses a lanthanide donor and a delayed reading to cut background.
As for `Cn1cc(C(Nc2cc(Cl)c3ncc(C#N)c(Nc4ccc(F)c(Cl)c4)c3c2)c2cccnc2)nn1` (stereo not shown) [Example 395, 8-chloro-4-((3-chloro-4-fluoro-phenyl)amino)-6-(((1-methyl-1H-1,2,3-triazol-4-yl)(pyridin-3-yl)methyl)amino)quinoline-3-carbonitrile], half-maximal inhibition (IC50) was put at 4 nM. With `CCN1CCC(n2cc(C(Nc3cc(Cl)c4ncc(C#N)c(Nc5ccc(F)c(Cl)c5)c4c3)c3cn(C)nn3)nn2)CC1` (stereo not shown) [Example 396, 8-chloro-4-((3-chloro-4-fluoro-phenyl)amino)-6-(((1-(1-ethyl-piperidin-4-yl)-1H-1,2,3-triazol-4-yl)(1-methyl-1H-1,2,3-triazol-4-yl)methyl)amino)quinoline-3-carbonitrile], half-maximal inhibition (IC50) was put at 43 nM. The same measure, in the same setting: to `Cn1cc(C(Nc2cc(Cl)c3ncc(C#N)c(Nc4ccc(F)c(Cl)c4)c3c2)c2cn(C3CCNCC3)nn2)nn1` (stereo not shown) [Example 397, 8-chloro-4-((3-chloro-4-fluoro-phenyl)amino)-6-(((1-methyl-1H-1,2,3-triazol-4-yl)(1-(piperidin-4-yl)-1H-1,2,3-triazol-4-yl)methyl)amino)-quinoline-3-carbonitrile] belongs 46 nM; to `N#Cc1cnc2c(Cl)cc(NC(c3cccnc3)c3cn([C@@H]4CCN(C(=O)OCc5ccccc5)C4)nn3)cc2c1Nc1ccc(F)c(Cl)c1` (stereo partly drawn) [Example 400, benzyl (3R)-3-(4-(((8-chloro-4-((3-chloro-4-fluorophenyl)amino)-3-cyanoquinolin-6-yl)amino)(pyridin-3-yl)methyl)-1H-1,2,3-triazol-1-yl)pyrrolidine-1-carboxylate], 119 nM; to `N#Cc1cnc2c(Cl)cc(NC(c3cccnc3)c3cn([C@@H]4CCNC4)nn3)cc2c1Nc1ccc(F)c(Cl)c1` (stereo partly drawn) [Example 401, 8-chloro-4-((3-chloro-4-fluoro-phenyl)amino)-6-((pyridin-3-yl(1-((R)-pyrrolidin-3-yl)-1H-1,2,3-triazol-4-yl)methyl)amino)quinoline-3-carbonitrile], 10 nM.

`CCN1CC[C@@H](n2cc(C(Nc3cc(Cl)c4ncc(C#N)c(Nc5ccc(F)c(Cl)c5)c4c3)c3cccnc3)nn2)C1` (stereo partly drawn) [Example 402, 8-chloro-4-((3-chloro-4-fluoro-phenyl)amino)-6-(((1-((R)-1-ethylpyrrolidin-3-yl)-1H-1,2,3-triazol-4-yl)(pyridin-3-yl)methyl)-amino)quinoline-3-carbonitrile] had an IC50 of 19 nM.

As to `N#Cc1cnc2c(Cl)cc(NC(c3cccnc3)c3cn(C4CCN(C(=O)OCc5ccccc5)CC4)nn3)cc2c1Nc1ccc(F)c(Cl)c1` (stereo not shown) [Example 404, benzyl 4-(4-(((8-chloro-4-((3-chloro-4-fluorophenyl)amino)-3-cyanoquinolin-6-yl)amino)(pyridin-3-yl)methyl)-1H-1,2,3-triazol-1-yl)piperidine-1-carboxylate], inhibition was half-maximal at 232 nM (IC50). Still for that read-out and setting: to `Cn1ncc2c([C@H](Nc3cc(Cl)c4ncc(C#N)c(NCC(C)(C)C)c4c3)c3cn(C4CC4)nn3)cccc21` [Example 423, (S)-8-chloro-6-(((1-cyclopropyl-1H-1,2,3-triazol-4-yl)(1-methyl-1H-indazol-4-yl)methyl)amino)-4-(neopentylamino)-quinoline-3-carbonitrile] belongs 3 nM; to `CC(C)(C)CNc1c(C#N)cnc2c(C#N)cc(N[C@H](c3cn(C4(C(F)F)CC4)nn3)c3cccc4ncsc34)cc12` [Example 424, (S)-6-((benzo[d]thiazol-7-yl(1-(1-(difluoromethyl)cyclopropyl)-1H-1,2,3-triazol-4-yl)methyl)amino)-4-(neopentylamino)quinoline-3,8-dicarbonitrile], 2 nM. On the same count and under the same terms, in the case of `CC(C)(C)CNc1c(C#N)cnc2c(C#N)cc(N[C@H](c3cn(C4(C(F)(F)F)CC4)nn3)c3csc4c3CCN(C3COC3)C4)cc12` [Example 429, (S)-4-(neopentylamino)-6-(((6-(oxetan-3-yl)-4,5,6,7-tetrahydrothieno[2,3-c]pyridin-3-yl)(1-(1-(trifluoromethyl)cyclopropyl)-1H-1,2,3-triazol-4-yl)methyl)amino)-quinoline-3,8-dicarbonitrile] it was 2 nM; in that of `CC(C)(C)CNc1c(C#N)cnc2c(Cl)cc(N[C@H](c3cn(C4(C)CC4)nn3)c3cccc4ncsc34)cc12` [Example 434, (S)-6-((benzo[d]thiazol-7-yl(1-(1-methylcyclopropyl)-1H-1,2,3-triazol-4-yl)methyl)amino)-8-chloro-4-(neopentylamino)quinoline-3-carbonitrile], 2 nM; in that of `CC(C)(C)CNc1c(C#N)cnc2c(Cl)cc(N[C@H](c3cn(C4(C(F)F)CC4)nn3)c3cccc4c3CNC4)cc12` [Example 445, (S)-8-chloro-6-(((1-(1-(difluoromethyl)-cyclopropyl)-1H-1,2,3-triazol-4-yl)(isoindolin-4-yl)methyl)amino)-4-(neopentylamino)quinoline-3-carbonitrile], 2 nM. Same read-out and setting: to `CC(C)(C)CNc1c(C#N)cnc2c(Cl)cc(N[C@H](c3cn(C4(CO)CC4)nn3)c3cccc4ncsc34)cc12` [Example 458, (S)-6-((benzo[d]thiazol-7-yl(1-(1-(hydroxymethyl)cyclopropyl)-1H-1,2,3-triazol-4-yl)methyl)amino)-8-chloro-4-(neopentylamino)quinoline-3-carbonitrile] belongs 4 nM; to `CC(C)(C)CNc1c(C#N)cnc2c(C#N)cc(N[C@H](c3cn(C4CC4)nn3)c3cccc4ncccc34)cc12` [Example 467, (S)-6-(((1-cyclopropyl-1H-1,2,3-triazol-4-yl)(quinolin-5-yl)methyl)amino)-4-(neopentylamino)quinoline-3,8-dicarbonitrile], 2 nM. `Cc1nc(F)ccc1[C@H](Nc1cc(Cl)c2ncc(C#N)c(NCC(C)(C)C)c2c1)c1cn(C2(C#N)CC2)nn1` [Example 476, (S)-8-chloro-6-(((1-(1-cyanocyclopropyl)-1H-1,2,3-triazol-4-yl)(6-fluoro-2-methylpyridin-3-yl)methyl)amino)-4-(neopentylamino)-quinoline-3-carbonitrile]: the IC50 came out at 3 nM. For the molecule `Cc1nc(F)ccc1[C@H](Nc1cc(Cl)c2ncc(C#N)c(NCC(C)(C)C)c2c1)c1cn(C2(C(N)=O)CCC2)nn1` [Example 478, (S)-1-(4-(((8-chloro-3-cyano-4-(neopentylamino)quinolin-6-yl)amino)(6-fluoro-2-methylpyridin-3-yl)methyl)-1H-1,2,3-triazol-1-yl)cyclobutane-1-carboxamide], the IC50 was found to be 1 nM.

In turn, `Cn1cnc2cccc([C@H](Nc3cc(Cl)c4ncc(C#N)c(NCC(C)(C)C)c4c3)c3cn(C4(C(F)F)CC4)nn3)c21` [Example 499, (S)-8-chloro-6-(((1-(1-(difluoromethyl)-cyclopropyl)-1H-1,2,3-triazol-4-yl)(1-methyl-1H-benzo[d]imidazol-7-yl)methyl)amino)-4-(neopentylamino)-quinoline-3-carbonitrile] had an IC50 of 3 nM.

Regarding `Cc1nc(F)ccc1[C@H](Nc1cc(F)c2ncc(C#N)c(NCC(C)(C)C)c2c1)c1cn(C2(C(F)F)CC2)nn1` [Example 514, (S)-6-(((1-(1-(difluoromethyl)cyclopropyl)-1H-1,2,3-triazol-4-yl)(6-fluoro-2-methylpyridin-3-yl)methyl)amino)-8-fluoro-4-(neopentylamino)quinoline-3-carbonitrile], half-maximal inhibition (IC50) required 4 nM.

Consider `CC(C)(C)CNc1c(C#N)cnc2c(C#N)cc(N[C@H](c3cn(C4(C(F)(F)F)CC4)nn3)c3cccc4ccncc34)cc12` [Example 535, (S)-6-((isoquinolin-8-yl(1-(1-(trifluoro-methyl)cyclopropyl)-1H-1,2,3-triazol-4-yl)methyl)amino)-4-(neopentylamino)-quinoline-3,8-dicarbonitrile], for which 2 nM corresponded to half-maximal inhibition (IC50).

In turn, `CCc1ncccc1[C@H](Nc1cc(Cl)c2ncc(C#N)c(NCC(C)(C)C)c2c1)c1cn(C2(C(F)F)CC2)nn1` [Example 604, (S)-8-chloro-6-(((1-(1-(difluoromethyl)cyclo-propyl)-1H-1,2,3-triazol-4-yl)(2-ethylpyridin-3-yl)methyl)amino)-4-(neopentylamino)-quinoline-3-carbonitrile] came in with an IC50 of 3 nM. `CC(C)(C)CNc1c(C#N)cnc2c(Cl)cc(N[C@H](c3cn(C4(C(F)(F)F)CC4)nn3)c3ccc(F)c4ncccc34)cc12` [Example 617, (S)-8-chloro-6-(((8-fluoroquinolin-5-yl)(1-(1-(trifluoromethyl)cyclopropyl)-1H-1,2,3-triazol-4-yl)methyl)amino)-4-(neopentylamino)quinoline-3-carbonitrile] had an IC50 of 9 nM.

Molecule `Cn1ccc2c([C@H](Nc3cc(Cl)c4ncc(C#N)c(NCC(C)(C)C)c4c3)c3cn(C4(C(F)(F)F)CC4)nn3)cccc2c1=O` [Example 618, (S)-8-chloro-6-(((2-methyl-1-oxo-1,2-dihydroisoquinolin-5-yl)(1-(1-(trifluoromethyl)cyclopropyl)-1H-1,2,3-triazol-4-yl)methyl)amino)-4-(neopentylamino)quinoline-3-carbonitrile] had an IC50 of 3 nM.

Still in this assay, the particulars now being: read-out: IC50 HTRF; Cot HTRF (TR-FRET) biochemical assay.
`Cn1cc(C(Nc2cc(Cl)c3ncc(C#N)c(Nc4ccc(F)c(Cl)c4)c3c2)c2cn(C3CCN(C(C)(C)C)CC3)nn2)nn1` (stereo not shown) [Example 399, 6-(((1-(1-(tert-butyl)piperidin-4-yl)-1H-1,2,3-triazol-4-yl)(1-methyl-1H-l, 2,3-triazol-4-yl)methyl)amino)-8-chloro-4-((3-chloro-4-fluorophenyl)-amino)quinoline-3-carbonitrile]: the IC50 was determined as 58 nM.

Take `Cc1n[nH]c2cccc([C@H](Nc3cc(C#N)c4ncc(C#N)c(NCC(C)(C)C)c4c3)c3cn(C4(C(F)F)CC4)nn3)c12` [Example 571]: the IC50 turned out to be 2 nM.

`Cc1nc(F)ccc1[C@H](Nc1cc(Cl)c2ncc(C#N)c(NCC(C)(C)C)c2c1)c1cn(C(F)(F)CO)nn1` [Example 584, (S)-8-chloro-6-(((1-(i, 1-difluoro-2-hydroxyethyl)-1H-1,2,3-triazol-4-yl)(6-fluoro-2-methylpyridin-3-yl)methyl)amino)-4-(neopentylamino)quinoline-3-carbonitrile]: the IC50 was determined as 2 nM.

In general, IC50 refers to the concentration at which inhibition is half-maximal.
